# Measured values reported in US7553506B2, “Herbal compositions for prevention and treatment of rheumatic and inflammatory diseases and method of preparing the same” (Shenzhen Qianrenren Sci. & Tech. Development Co., priority 2004, dated 2009).
# What was measured:
# [1] = tested on: Outpatients with active rheumatoid arthritis; test: Clinical study of Anti-Rheumatoid Arthritis Liquor (ARL) versus active control (MTX combination); type: in vivo, human; details: for number of patients with 50% improvement (R50) / number of patients with 75% improvement (R75) / number of patients with 100% improvement (R100) / % of patients with 50% improvement (R50) / % of patients with 75% improvement (R75) / % of patients with 100% improvement (R100): 20 patients per group
# Description: Outpatients with active rheumatoid arthritis, according to the classification criteria of the American Arthritis College, without other significant medical conditions were recruited. 40 patients were recruited, 7 male and 33 female. Their ages were ranged from 28-67 years old with average of 46.8 years old. The disease duration of the patients ranged from 0.4 to 13 years.
# […] Observe group, 20 patients, was treated with ARL (30 ml/d). It was taken before sleep or equally divided to be taken in the morning and evening.
# The outcome measurements for the both groups were divided to signs and symptoms, including: rest pain assessment, duration of morning stiffness, number of tender joint and the index of tenderness, number of swelling joints and the swelling index, grip strength, joint function, erythrocyte sedimentation rate, C reaction protein, and rheumatoid factor. The individual parameter improvement was calculated through the following formula:
# The total improvement was used to compare the efficacy between the two groups. In order to accurately reflect the drug efficacy, 50% improvement, 75% improvement, and 100% improvement (R50, R75 and R100) were used as statistical endpoint for efficacy.
# [2] = tested on: rheumatoid arthritis; details: general statement on RA therapy; cited from earlier work
# [3] = tested on: Outpatients with active rheumatoid arthritis; test: Clinical study of Anti-Rheumatoid Arthritis Capsule (ARC) versus active control (MTX combination); details: for % of patients with 50% improvement (R50) / number of patients with 50% improvement (R50) / number of patients with 75% improvement (R75) / number of patients with 100% improvement (R100) / % of patients with 75% improvement (R75): 18 patients per group
# Description: Anti-Rheumatoid Arthritis Capsule (ARC) is a capsule made of the powder form of the herbal composition of the present invention in accordance with the components and method shown in Example 1. To assess the basic efficacy and side effect of ARC, an open, randomized and active controlled clinical trial was carried out.
# Outpatients with active rheumatoid arthritis, according to the classification criteria of the American Arthritis College, without other significant medical conditions were recruited. […] Safety and compliance were monitored every 2 weeks with complete outcome evaluation at 4, 8, and 12 weeks.
# Thirty-six (36) typical active RA patients were selected and randomly divided into two groups. Observe group, 18 patients, was treated with ARC (4 capsules t.i.d., each capsule is about 0.3 g).
# The improvement was denoted as either R50, R75 or R100 reflecting either an improvement to the 50%, 75%, or 100% level in the parameters based on the improvements of signs and symptoms including rest pain assessment, duration of morning stiffness, number of tender joint and the index of tenderness, number of swelling joints and the swelling index, grip strength, joint function, erythrocyte sedimentation rate, C reaction protein, and rheumatoid factor.
# [4] = 26 weeks, listed as combination of oral MTX and NSAID
# [5] = 52 weeks, listed as combination of oral MTX and NSAID
# [6] = 12 weeks, listed as active control
smiles,measurement,setting,value
"CN(Cc1cnc2nc(N)nc(N)c2n1)c1ccc(C(=O)N[C@@H](CCC(=O)O)C(=O)O)cc1 [MTX, Methotrexate]",time required to reach R50,[1],8-12 weeks
same,time required to reach R75,[1],20-32 weeks
same,time required to reach R100,[1],52 weeks
same,number of patients with 50% improvement (R50),[1]; 4 weeks,0
same,number of patients with 75% improvement (R75),[1]; 4 weeks,0
same,number of patients with 100% improvement (R100),[1]; 4 weeks,0
same,number of patients with 50% improvement (R50),[1]; 8 weeks,0
same,number of patients with 75% improvement (R75),[1]; 8 weeks,0
same,number of patients with 100% improvement (R100),[1]; 8 weeks,0
same,% of patients with 50% improvement (R50),[1]; 12 weeks,(45) %
same,number of patients with 50% improvement (R50),[1]; 12 weeks,9
same,number of patients with 75% improvement (R75),[1]; 12 weeks,0
same,number of patients with 100% improvement (R100),[1]; 12 weeks,0
same,% of patients with 50% improvement (R50),"[1]; 12 weeks, listed as combination of oral MTX and NSAID",45%
same,% of patients with 50% improvement (R50),[1]; 26 weeks,(40) %
same,% of patients with 75% improvement (R75),[1]; 26 weeks,(50) %
same,number of patients with 50% improvement (R50),[1]; 26 weeks,8
same,number of patients with 75% improvement (R75),[1]; 26 weeks,10
same,number of patients with 100% improvement (R100),[1]; 26 weeks,0
same,% of patients with 50% improvement (R50),[1]; [4],40%
same,% of patients with 75% improvement (R75),[1]; [4],50%
same,% of patients with 75% improvement (R75),[1]; 52 weeks,(75) %
same,% of patients with 100% improvement (R100),[1]; 52 weeks,(25) %
same,number of patients with 50% improvement (R50),[1]; 52 weeks,0
same,number of patients with 75% improvement (R75),[1]; 52 weeks,15
same,number of patients with 100% improvement (R100),[1]; 52 weeks,5
same,% of patients with 75% improvement (R75),[1]; [5],75%
same,% of patients with 100% improvement (R100),[1]; [5],25%
same,"Time Required for Improvement, R50","[1]; Table 5, value ± spread",15.2 ± 5.43 week
same,"Time Required for Improvement, R75","[1]; Table 5, value ± spread",27.7 ± 10.5 week
same,"Time Required for Improvement, R100","[1]; Table 5, value ± spread",47.2 ± 10.7 week
same,time usually required to show some clinical effect,[2],12-24 weeks
same,% of patients with 50% improvement (R50),[3]; 4 weeks,(11.1) %
same,number of patients with 50% improvement (R50),[3]; 4 weeks,2
same,number of patients with 75% improvement (R75),[3]; 4 weeks,0
same,number of patients with 100% improvement (R100),[3]; 4 weeks,0
same,% of patients with 50% improvement (R50),"[3]; 4 weeks, listed as active control",11.1%
same,% of patients with 50% improvement (R50),[3]; 8 weeks,(11.1) %
same,number of patients with 50% improvement (R50),[3]; 8 weeks,2
same,number of patients with 75% improvement (R75),[3]; 8 weeks,0
same,number of patients with 100% improvement (R100),[3]; 8 weeks,0
same,% of patients with 50% improvement (R50),"[3]; 8 weeks, listed as active control",11.1%
same,patients who complained about stomachalgia,"[3]; 12 weeks observation, 18 patients",3 patients
same,% of patients with 50% improvement (R50),[3]; 12 weeks,(55.5) %
same,% of patients with 75% improvement (R75),[3]; 12 weeks,(11.1) %
same,number of patients with 50% improvement (R50),[3]; 12 weeks,10
same,number of patients with 75% improvement (R75),[3]; 12 weeks,2
same,% of patients with 50% improvement (R50),[3]; [6],55.5%
same,% of patients with 75% improvement (R75),[3]; [6],11.1%
